Test results: ChEMBL document CHEMBL2380192, “Structure-activity relationship of potent antimicrobial peptide analogs of Ixosin-B amide” (Bioorg Med Chem Lett, 2013)
In brackets after ≈: the same amount, converted by molar mass. Activity calls are given as the source filed them. No cut-off for these calls is given here.

How the values were obtained:
Pseudomonas aeruginosa = assay: Antimicrobial activity against Pseudomonas aeruginosa ATCC 27853 after 18 to 20 hrs by macrobroth dilution method; assay type: functional
Staphylococcus aureus = assay: Antimicrobial activity against Staphylococcus aureus ATCC 25923 after 18 to 20 hrs by macrobroth dilution method; assay type: functional
Escherichia coli [1] = assay: Antimicrobial activity against Escherichia coli ATCC 25922 after 18 to 20 hrs by macrobroth dilution method; assay type: functional
[2] = Toxicity against human RBCs assessed as hemolysis at 100 uM after 1 hr by spectrophotometry; assay type: cell-based, Erythrocyte; details: red blood cells (RBCs), read-out: Activity
Escherichia coli [3] = assay: Induction of inner membrane permeabilization in Escherichia coli ML-35p at 10 to 100 uM measured every 2 mins by beta-galactosidase/ONPG hydrolysis assay; assay type: functional, organism-based
Escherichia coli [4] = assay: Induction of inner membrane permeabilization in Escherichia coli ML-35p at 1 uM measured every 2 mins by beta-galactosidase/ONPG hydrolysis assay; assay type: functional, organism-based
Escherichia coli [5] = assay: Induction of outer membrane permeabilization in Escherichia coli ML-35p at 1 uM measured every 2 mins by beta-lactamase/nitrocefin hydrolysis assay; assay type: functional, organism-based
Escherichia coli [6] = assay: Induction of outer membrane permeabilization in Escherichia coli ML-35p at 40 to 100 uM measured every 2 mins by beta-lactamase/nitrocefin hydrolysis assay; assay type: functional, organism-based
Escherichia coli [7] = assay: Induction of outer membrane permeabilization in Escherichia coli ML-35p at 10 to 20 uM measured every 2 mins by beta-lactamase/nitrocefin hydrolysis assay; assay type: functional, organism-based

Row | Compound | MIC90 (Pseudomonas aeruginosa) | MIC90 (Staphylococcus aureus) | MIC90 (Escherichia coli [1]) | hemolysis at 1 h, 100 µM [2] | Activity (Escherichia coli [3]) | Activity (Escherichia coli [4]) | Activity (Escherichia coli [5]) | Activity (Escherichia coli [6]) | Activity (Escherichia coli [7])
1 | CC1(C)S[C@@H]2[C@H](NC(=O)Cc3ccccc3)C(=O)N2[C@H]1C(=O)O [PENICILLIN G] | > 100 µM | 0.125 µM (≈ 0.0418 µg/mL) | > 100 µM | – | – | – | – | – | –
2 | GENTAMICIN | 0.35 µM | 0.1 µM | 1 µM | – | – | – | – | – | –
3 | H-EQHSSGKSDV-OH | > 100 µM | > 100 µM | > 100 µM | – | – | – | – | – | –
4 | H-GKSDVRRWRSRY-OH | > 100 µM | > 100 µM | > 100 µM | – | – | – | – | – | –
5 | H-KKSYVRRWRS-OH | > 100 µM | > 100 µM | > 100 µM | -0.6% | – | – | – | – | –
6 | H-LWGTRSGIQP-OH | > 100 µM | > 100 µM | > 100 µM | – | – | – | – | – | –
7 | H-QLKVDLWGTR-OH | > 100 µM | > 100 µM | > 100 µM | – | – | – | – | – | –
8 | H-QLKVDLWGTRSGIQPEQHSSGKSDVRRWRSRY-NH2 [Ixosin-B-amide] | > 100 µM | > 100 µM | 80 µM | – | – | – | – | – | –
9 | H-SGIQPEQHSS-OH | > 100 µM | > 100 µM | > 100 µM | – | – | – | – | – | –
10 | H-WKSDVRRWRSRY-OH | > 100 µM | > 100 µM | 64 µM | 0.3% | – | – | – | – | –
11 | H-WKSYVRRW-OH | > 100 µM | 100 µM | 64 µM | 2% | – | – | – | – | –
12 | H-WKSYVRRWR-OH | > 100 µM | 64 µM | 64 µM | 1.1% | – | – | – | – | –
13 | H-WKSYVRRWRS-OH | > 100 µM | > 100 µM | 64 µM | -0.4% | – | – | – | – | –
14 | H-WKSYVRRWRSR-OH | > 100 µM | 32 µM | 16 µM | -1.2% | – | – | – | – | –
15 | H-WKSYVRRWRSRY-OH | 100 µM | 32 µM | 16 µM | 1.5% | – | – | – | – | –
16 | H-WWSYVRRWRSR-OH | > 100 µM | 8 µM | 16 µM | 3.4% | Active | inactive | inactive | Active | Active
